Data on four compounds can be found in patent US20200148718A1, “PHARMACEUTICAL-GRADE 20-HYDROXYECDYSONE EXTRACT, USE OF SAME AND PREPARATION THEREOF” (BIOPHYTIS, priority 2017, published 2020).

Data set [1] in a line: Phase I clinical trial, single administrations (SAD), plasma pharmacokinetics. It is filed as in vivo, humans. Conditions: SAD cohorts, FIG. 3. As for the experimental part: In the context of a phase I clinical trial, the plasma concentrations of BIO101 were measured after single administrations (SAD) of 100, 350, 700 and 1400 mg/day in individuals on an empty stomach. Repeated administrations (MAD) over 14 days were then carried out with a single daily dose of 350 mg or with two daily doses (morning and evening) of 350 mg and 450 mg. These administrations of BIO101 to various cohorts of volunteers (n=6) allowed to determine the main pharmacokinetic parameters of BIO101: Cmax (maximum plasma concentration of BIO101 after single or repeated), Cmin (minimum plasma concentration of BIO101 after single or repeated administration), Tmax (time necessary to reach the maximum plasma concentration of BIO101 after single or repeated administration), and AUC (Area under curve) synonymous with level of plasma exposure.
The average profile of the cohorts of the SAD is presented in FIG. 3 in which Y are young volunteers and O are volunteers, the age of which is between 65 and 85 years. […] The half-life of the 20E is approximately 3-4 hours.

The conditions of data set [2]: pure molecule, data of the literature; cited from earlier work.
Data set [3] has as its system nuclear receptors of the androgens or of the oestrogens. The conditions noted are these: Lapenna et al., 2015; cited from earlier work.
A short description of data set [4]: Bioavailability with respect to 20E. Conditions: relative to 20E.

Turning to `CC(C)(O)CC[C@@H](O)[C@](C)(O)[C@H]1CC[C@@]2(O)C3=CC(=O)[C@@H]4C[C@@H](O)[C@@H](O)C[C@]4(C)[C@H]3CC[C@]12C` [20E, 20-hydroxyecdysone], in data set [1], the Bioavailability result was “low bioavailability”, the “Elimination of the active ingredient from plasma” value was “almost totally disappears after 24 hours” and the Half-life lay within 3 to 4 h. Moreover, the Cytotoxicity result in data set [2] is reported as “slightly cytotoxic”.
`CC12CC(O)C(O)CC1C(=O)C=C1C2CCC2(C)C(O)CCC12O` (centres unmarked) [dihydrorubrosterone, Dihydrorubrosterone]: in data set [3], the “Interaction with nuclear receptors of the androgens or of the oestrogens” value (“Interaction with nuclear receptors” below) is “capable of interacting”.
`C[C@]12C[C@H](O)[C@H](O)C[C@H]1C(=O)C=C1[C@@H]2CC[C@]2(C)C(=O)CC[C@@]12O` [rubrosterone, Rubrosterone]: the “Interaction with nuclear receptors” value in data set [3] is “capable of interacting”.
`CC(=O)[C@H]1CC[C@@]2(O)C3=CC(=O)[C@@H]4C[C@@H](O)[C@@H](O)C[C@]4(C)[C@H]3CC[C@]12C` [poststerone, Poststerone]: the “Interaction with nuclear receptors” value in data set [3] was “capable of interacting”. Moreover, in data set [4], the “Bioavailability with respect to 20E” value is on record as “approximately twenty times better”.
